Measured values reported in the supplement of paper PMC10307832.

Assays:
Test in all cases: relative viability (nuclei count vs DMSO), 5 days (fraction); higher = more cells survive
[1] = compound: COc1ncc(-c2ccc3nccc(-c4ccnnc4)c3c2)cc1NS(=O)(=O)c1ccc(F)cc1F [Omipalisib] + Cc1nc(NC(=O)N2CCC[C@H]2C(N)=O)sc1-c1ccnc(C(C)(C)C(F)(F)F)c1 [Alpelisib] (partner 2 µM)
Summary of the method: (§1)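 Relative viability was taken as the ratio of nuclei in treated wells to nuclei in vehicle wells. Lung cancer cell lines in 1536-well plates received compounds by pin tool one day after seeding, either one drug alone or a fixed anchor-drug dose plus five library-drug doses (not always all listed) in √10 steps. Nuclei were counted on 4× images after 5 days of treatment, and values are medians of duplicate plates.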

[2] = compound: COc1ncc(-c2ccc3nccc(-c4ccnnc4)c3c2)cc1NS(=O)(=O)c1ccc(F)cc1F [Omipalisib] + COc1cccc2cc(-c3nc([C@H]4CC[C@H](C(=O)O)CC4)n4ncnc(N)c34)[nH]c12 [OSI-027] (partner 0.5 µM)
Summary of the method: as §1

[3] = compound: COc1ncc(-c2ccc3nccc(-c4ccnnc4)c3c2)cc1NS(=O)(=O)c1ccc(F)cc1F [Omipalisib] + CC1(C)CCC(c2ccc(Cl)cc2)=C(CN2CCN(c3ccc(C(=O)NS(=O)(=O)c4ccc(N[C@H](CCN5CCOCC5)CSc5ccccc5)c(S(=O)(=O)C(F)(F)F)c4)cc3)CC2)C1 [Navitoclax] (partner 0.5 µM)
Summary of the method: as §1

[4] = compound: COc1ncc(-c2ccc3nccc(-c4ccnnc4)c3c2)cc1NS(=O)(=O)c1ccc(F)cc1F [Omipalisib] + O=C(c1cc(Cc2n[nH]c(=O)c3ccccc23)ccc1F)N1CCN(C(=O)C2CC2)CC1 [Olaparib] (partner 8 µM)
Summary of the method: as §1

[5] = compound: COc1ncc(-c2ccc3nccc(-c4ccnnc4)c3c2)cc1NS(=O)(=O)c1ccc(F)cc1F [Omipalisib] + CCNC(=O)c1noc(-c2cc(C(C)C)c(O)cc2O)c1-c1ccc(CN2CCOCC2)cc1 [Luminespib] (partner 0.01 µM)
Summary of the method: as §1

[6] = compound: COc1ncc(-c2ccc3nccc(-c4ccnnc4)c3c2)cc1NS(=O)(=O)c1ccc(F)cc1F [Omipalisib] + Nc1nc2[nH]cc(CCc3ccc(C(=O)N[C@@H](CCC(=O)O)C(=O)O)cc3)c2c(=O)[nH]1 [Pemetrexed] (partner 0.2 µM)
Summary of the method: as §1

Cell Line | relative viability ([1]; first compound 0.0003 µM) | relative viability ([1]; first compound 0.003 µM) | relative viability ([1]; first compound 0.03 µM) | relative viability ([2]; first compound 0.0003 µM) | relative viability ([2]; first compound 0.003 µM) | relative viability ([2]; first compound 0.03 µM) | relative viability ([3]; first compound 0.0003 µM) | relative viability ([3]; first compound 0.003 µM) | relative viability ([3]; first compound 0.03 µM) | relative viability ([4]; first compound 0.0003 µM) | relative viability ([4]; first compound 0.003 µM) | relative viability ([4]; first compound 0.03 µM) | relative viability ([5]; first compound 0.0003 µM) | relative viability ([5]; first compound 0.003 µM) | relative viability ([5]; first compound 0.03 µM) | relative viability ([6]; first compound 0.0003 µM) | relative viability ([6]; first compound 0.003 µM) | relative viability ([6]; first compound 0.03 µM)
NCI-H2009 | 1.16 | 1.12 | 0.994 | 0.673 | 0.444 | 0.312 | 1.22 | 1.14 | 0.897 | 0.705 | 0.511 | 0.378 | 1.04 | 1.02 | 0.874 | 1.04 | 1.15 | 0.892
NCI-H460 | 0.362 | 0.241 | 0.0908 | 0.661 | 0.258 | 0.0847 | 1.06 | 0.61 | 0.143 | 0.337 | 0.373 | 0.167 | 0.0375 | 0.0227 | 0.0165 | 0.0592 | 0.0512 | 0.0757
